Cc1cccc(C(=O)O)c1[N+](=O)[O-]
solubility (mole fraction)
Details	in 1,4-dioxane	in NMP	in acetone	in acetonitrile	in ethanol	in ethyl acetate	in isopropanol	in methanol	in n-propanol
283.15 K	–	0.0128	0.0253	0.00464	0.0103	0.00907	0.00877	0.0097	0.00792
285.65 K	0.0281	0.0141	0.0265	0.00501	0.0111	0.00965	0.00946	0.0104	0.00845
288.15 K	0.0303	0.0154	0.0277	0.00543	0.012	0.0102	0.0102	0.0112	0.00895
290.65 K	0.0324	0.0168	0.0291	0.00588	0.013	0.0108	0.011	0.012	0.00955
293.15 K	0.0346	0.0184	0.0305	0.00633	0.014	0.0115	0.0118	0.0129	0.0102
295.65 K	0.0371	0.0201	0.0318	0.00684	0.0152	0.0121	0.0126	0.0138	0.0109
298.15 K	0.0396	0.0218	0.0333	0.00737	0.0165	0.0128	0.0136	0.0149	0.0116
300.65 K	0.0424	0.0234	0.0347	0.00788	0.0179	0.0136	0.0145	0.0159	0.0124
303.15 K	0.0452	0.0254	0.0364	0.00846	0.0193	0.0144	0.0153	0.0171	0.0133
305.65 K	0.0483	0.0273	0.0379	0.00915	0.0207	0.0151	0.0163	0.0183	0.0141
308.15 K	0.0512	0.0296	0.0396	0.00984	0.0223	0.016	0.0175	0.0196	0.0151
310.65 K	0.0543	0.032	0.0414	0.0106	0.0238	0.017	0.0186	0.0209	0.016
313.15 K	0.0577	0.0345	0.0432	0.0113	0.0257	0.018	0.0198	0.0223	0.0169
315.65 K	0.0609	0.0372	0.045	0.0121	0.0276	0.019	0.021	0.0237	0.0178
318.15 K	0.0646	0.0405	0.0466	0.0128	0.0296	0.02	0.0224	0.0252	0.0188

Reference: BigSolDB 2.1
